According to ChEMBL document CHEMBL3108766, “Cladosins A-E, hybrid polyketides from a deep-sea-derived fungus, Cladosporium sphaerospermum” (J Nat Prod, 2014):

Tested on: Influenza A virus
Assay: Antiviral activity against influenza A virus H1N1 infected in MDCK cells assessed as inhibition of virus-induced cytopathic effect after 48 hrs by crystal violet staining assay
Format: functional, organism-based

Q: CC(C)=C1NC(=O)/C(=C(N)\C=C\C[C@H](C)O)C1=O was tested. Which IC50 did it give?
A: 276 µM

Q: NC(=O)c1ncn([C@@H]2O[C@H](CO)[C@@H](O)[C@H]2O)n1 [RIBAVIRIN] was tested. Which IC50 did it give?
A: 131 µM
